Test results as given in ChEMBL document CHEMBL1129912, “Functionalized azoles and triazolo[1,5-a]pyrimidines as latent leishmanicides” (Bioorg Med Chem Lett, 1997).

Legend:
[1] = tested on: Leishmania donovani; assay: The in vitro leishmanicidal activity by measuring the 3H thymidine incorporation in promastigotes of Leishmania donovani at 200 uM concentration; assay type: functional
[2] = tested on: Leishmania donovani; assay: The in vitro leishmanicidal activity by measuring the 3H thymidine incorporation in promastigotes of Leishmania donovani; assay type: functional, organism-based
[3] = tested on: Leishmania donovani; assay: The in vitro leishmanicidal activity by measuring the 3H thymidine incorporation in promastigotes of Leishmania donovani at 100 uM concentration; assay type: functional

Row | SMILES | Growth inhibition [1] | IC50 [2] | Growth inhibition [3]
1 | Cc1cc(O)n2nc(NS(=O)(=O)c3ccc(Cl)cc3)nc2n1 | 5% |  | 
2 | Nc1n[nH]c(NS(=O)(=O)c2ccccc2)n1 | 97% | 2 µM | 
3 | O=S(=O)(Nc1nc2nc3c(c(O)n2n1)CCC3)c1ccc(Cl)cc1 | 15% |  | 
4 | N#Cc1cnc2nc(NS(=O)(=O)c3ccc(Cl)cc3)nn2c1N | 0% |  | 
5 | O=S(=O)(Nc1nc2nc(-c3ccccc3)cc(-c3ccccc3)n2n1)c1ccc(Cl)cc1 | 98% | 2 µM | 
6 | Cc1ccc2nc(NS(=O)(=O)c3ccc(N)cc3)oc2c1 | 92.6% | 15.5 µM | 
7 | Cc1ccc(S(=O)(=O)Nc2nc3nc(C)cc(C)n3n2)cc1 | 100% | 1.5 µM | 
8 | Nc1ccc(S(=O)(=O)Nc2nc3ccccc3o2)cc1 | 74% | 6.4 µM | 
9 | Nc1ccc(S(=O)(=O)Nc2nc3ccccc3[nH]2)cc1 | 80% | 10.5 µM | 
10 | CCOC(=O)c1cnc2nc(NS(=O)(=O)c3ccc(Cl)cc3)nn2c1O | 0% |  | 
11 | CCOC(=O)c1cnc2nc(NS(=O)(=O)c3ccc(Cl)cc3)nn2c1N | 0% |  | 
12 | Cc1ccc(S(=O)(=O)Nc2nc3nc(-c4ccccc4)cc(O)n3n2)cc1 | 100% | 2 µM | 
13 | CSc1nc2nc(NS(=O)(=O)c3ccc(Cl)cc3)nn2c(N)c1C#N | 17% |  | 
14 | Cc1cc(C)n2nc(NS(=O)(=O)c3ccc(Cl)cc3)nc2n1 | 3% |  | 
15 | N=C(N)c1ccc(OCCCCCOc2ccc(C(=N)N)cc2)cc1 [PENTAMIDINE] |  | 0.76 µM | 100%
